From patent US8748105B2, “Method for selecting a candidate drug compound” (Pepscan Systems B.V., priority 2003, dated 2014) come the findings set out here.

One test relates to anti-FSH-β mAb 2. Description: Loopscan: sandwich ELISA of solid-phase cyclized or linear 12-mer FSH β3-loop peptides. Particulars: solid-phase 12-mer peptides; mAb 2 up to 10 μg/mL. Format: binding. The method, then: FIG. 12: ELISA results of the binding of anti-FSH monoclonal antibody 2 (10 μg/mL) in 3 μL miniwells containing overlapping a) cyclized (with m-dibromoxylene) and b) linear 12-mer peptides of the β3-loop of FSH-beta; Sequence of binding peptide: (AA68-AA79) Ac-CRVPGAAHHADSLC-resin (SEQ ID NO:5).
The formation of peptide loops via reaction of a linear peptide containing two free sulfhydryl groups with 1,3-bis(bromomethyl)benzene scaffold was also carried out on a polypropylene surface grafted with polyacrylic acid (6% solution containing CuSO4, irradiation using γ-radiation at a dose of 12 kGy) and functionalized with amino groups via coupling with t-butyloxycarbonyl-hexamethylene diamine (Boc-HMDA) using dicyclohexylcarbodiimide (DCC) with N-hydroxybenzotriazole (HOBt) and subsequent deprotection of the Boc-groups using trifluoroacetic acid (TFA). Standard Fmoc peptide chemistry was used to synthesize a set of overlapping linear peptides of 14 amino acid long peptides corresponding to the β3-loop of FSH in separate microwells of 3 μL each using our previously developed minicard format. Each peptide was synthesized with a Cys-residue in position 1, followed by the overlapping sequences of the FSH β3-loop (2-13, 3-14, 4-15, etc.) followed by another Cys-residue in the final position. […]
(In general: An ELISA detects its analyte on a solid surface through an enzyme-linked reagent.)

Test [1] concerns the target mAb 3468 (anti-beta-CG monoclonal antibody). Description: Binding of beta-CG mimics (T4 double-loop constructs) to monoclonal antibody 3468 (Kd). The source says: For the inhibition of the specific interaction with hCG and its receptor there is a need for compounds which structurally mimic the hormone. […] It is, therefore, likely that binding of beta-CG to the receptor also involves a discontinuous binding on the hormone. Provided is the design and synthesis of small peptide-based beta-CG mimics that strongly bind to monoclonal antibody 3468. We used the synthetic strategy for structural fixation of linear peptides as outline above.
The beta-CG mimics are advantageously used for the production of antisera that react specifically with hCG.

For test [2], the target named is mAb 1 (monoclonal antibody specific for beta-FSH). The test is described as follows: Binding of beta-FSH mimics (T4 double-loop constructs) to beta-FSH-specific monoclonal antibody mAb 1 (Kd). The text has this:
For the inhibition of the specific interaction with beta-FSH and its receptor, there is a need for structural mimics of the hormone. Although there is no crystallographic structure describing the interaction of beta-FSH with its receptor, it is very likely that this binding site is discontinuous in nature. We designed and synthesized a number of double-loop peptide construct on a tetrabromo-(T4)scaffold that could be used as beta-FSH mimics. We used the synthetic strategy for structural fixation of linear peptides as outlined above. We tested the capacity of these small peptide-based beta-FSH mimics to bind to a number of different monoclonal antibodies specific for beta-FSH. […] Furthermore, the beta-FSH mimics can be used successfully for the production of antisera that react specifically with beta-FSH.

Test [3] addresses mAb 2 (anti-FSHβ monoclonal antibody). Description: Binding of looped peptide mimics of FSH-β to anti-FSH-β monoclonal antibody mAb 2 (Kd). The source says: We used the synthetic strategy for structural fixation of linear peptides as outlined above. We tested the capacity of these small peptide-based beta-FSH mimics to bind to a number of different monoclonal antibodies specific for beta-FSH.

Starred links: 1 amine or outer side, 2 acyl side, 3 side chain; linkers in the order of their positions; H or OH if unused. Positions of bridges follow the written chain, without caps; N, C: chain ends. T2 = dibromobenzene scaffold (1,3-bis(bromomethyl)benzene, m-dibromoxylene) forming thioether links to the two Cys; resin = solid-support resin (cross-linked polystyrene) to which the C-terminal amino acid is attached; mXylylene = c1cc(C[*:1])cc(C[*:2])c1

“Ac-CRVPGAAHHADSLC-resin (linker 1-14 via mXylylene (inferred); also: C-terminus resin-bound) [68-79]”: the “binding to anti-FSH-β mAb 2 in sandwich ELISA (in words)” value in the test on anti-FSH-β mAb 2 was “binds strongly”.

In the case of “c-T2-[Ac-CRVPGAAHHADSLC-NH2] (linker 1-14 via T2 (inferred)) [compound 1]”, the Kd (as a rule, a measure of binding affinity in units of concentration) was determined as 15000 nM in test [1], 270 nM in test [2] and 2500 nM in test [3].
